Measurements reported in ChEMBL document CHEMBL5614379, “The synthesis of 1,2,3-triazoles as binders of D-dopachrome tautomerase (D-DT) for the development of dual-targeting inhibitors” (Eur J Med Chem, 2024).
Calls of active or inactive are those of the source. The rule behind the calls is not given here.

Assays:
[1] = molecular target: D-dopachrome decarboxylase (Homo sapiens, UniProt P30046); assay: Inhibition of DDT (unknown origin) expressed in Escherichia coli by absorbance based analysis
[2] = molecular target: T1, Macrophage migration inhibitory factor (Homo sapiens) (UniProt P14174); assay: Non-competitive inhibition of MIF (unknown origin) at 12.5 uM using pyruvic acid as substrate incubated for 10 mins by absorbance based analysis
T1 sequence (whole entry): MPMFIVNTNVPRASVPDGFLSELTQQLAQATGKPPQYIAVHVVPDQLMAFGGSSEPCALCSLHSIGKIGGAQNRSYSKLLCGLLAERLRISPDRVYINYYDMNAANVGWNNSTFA

SMILES	IC50 [1] [µM]	inhibition [2]
O=C(O)c1cccc(-c2cc(C(=O)O)ncc2C(=O)O)c1	27	
COc1cccc2c1CC(NC(=O)c1cn(-c3ccc(Cl)c(C(F)(F)F)c3)nn1)CC2 (configuration not stated)		Active
